Data reported in ChEMBL document CHEMBL4819145, “Synthesis and evaluation of bifunctional PTP4A3 phosphatase inhibitors activating the ER stress pathway” (Bioorg Med Chem Lett, 2021).
Active and inactive are the calls of the source. No cut-off for these calls is given here.

Columns and labels:
[1] = system: MDA-MB-231; test: Cytotoxicity against JMS-053-pretreated human MDA-MB-231 cells at 20 to 60 uM measured after 72 hrs by CellTiter-Glo assay; type: functional, cell-based; settings: dose 20-60 µM
[2] = system: MDA-MB-231; test: cells; settings: Homo sapiens, MDA-MB-231, 72 h
[3] = system: MDA-MB-231; test: Induction of ER stress in human MDA-MB-231 cells assessed as increase in HSPA5A mRNA expression at 2 mM measured after 2 hrs by qPCR method; type: functional, cell-based
[4] = system: MDA-MB-231; test: Induction of ER stress in human MDA-MB-231 cells assessed as increase in sXbp1 mRNA expression at 2 mM measured after 2 hrs by qPCR method; type: functional, cell-based
[5] = system: MDA-MB-231; test: Induction of ER stress in human MDA-MB-231 cells assessed as increase in DDIT3 mRNA expression at 2 mM measured after 2 hrs by qPCR method; type: functional, cell-based
[6] = system: MDA-MB-231; test: Induction of ER stress in human MDA-MB-231 cells assessed as increase in DDIT3 mRNA expression at 2XEC50 measured after 6 hrs by qPCR method; type: functional, cell-based
[7] = system: MDA-MB-231; test: Induction of ER stress in human MDA-MB-231 cells assessed as increase in HSPA5A mRNA expression at 2XEC50 measured after 6 hrs by qPCR method; type: functional, cell-based
[8] = system: MDA-MB-231; test: Induction of ER stress in human MDA-MB-231 cells assessed as increase in sXbp1 mRNA expression at 2XEC50 measured after 6 hrs by qPCR method; type: functional, cell-based
[9] = molecular target: T1, Tyrosine-protein phosphatase non-receptor type 1 (Homo sapiens) (UniProt P18031); test: Inhibition of PTP1B (unknown origin) at 1 uM
T1 sequence (whole entry): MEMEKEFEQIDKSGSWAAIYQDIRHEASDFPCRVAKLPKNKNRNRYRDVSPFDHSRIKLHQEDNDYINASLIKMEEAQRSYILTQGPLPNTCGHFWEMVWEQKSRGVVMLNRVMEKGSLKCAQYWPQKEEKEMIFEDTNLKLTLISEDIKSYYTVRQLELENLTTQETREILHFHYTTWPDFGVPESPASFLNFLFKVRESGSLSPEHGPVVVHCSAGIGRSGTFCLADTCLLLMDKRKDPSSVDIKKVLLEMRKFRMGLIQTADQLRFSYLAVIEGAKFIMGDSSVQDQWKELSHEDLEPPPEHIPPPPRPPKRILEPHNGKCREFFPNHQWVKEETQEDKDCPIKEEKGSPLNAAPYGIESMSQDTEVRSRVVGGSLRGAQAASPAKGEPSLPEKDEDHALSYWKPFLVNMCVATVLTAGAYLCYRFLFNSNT

[10] = molecular target: Dual specificity protein phosphatase 3 (Homo sapiens) (UniProt P51452); test: Inhibition of DUSP3 (unknown origin) at 1 uM
[11] = molecular target: T2, M-phase inducer phosphatase 2 (Homo sapiens) (UniProt P30305); test: Inhibition of CDC25B (unknown origin) at 1 uM
T2 sequence (whole entry): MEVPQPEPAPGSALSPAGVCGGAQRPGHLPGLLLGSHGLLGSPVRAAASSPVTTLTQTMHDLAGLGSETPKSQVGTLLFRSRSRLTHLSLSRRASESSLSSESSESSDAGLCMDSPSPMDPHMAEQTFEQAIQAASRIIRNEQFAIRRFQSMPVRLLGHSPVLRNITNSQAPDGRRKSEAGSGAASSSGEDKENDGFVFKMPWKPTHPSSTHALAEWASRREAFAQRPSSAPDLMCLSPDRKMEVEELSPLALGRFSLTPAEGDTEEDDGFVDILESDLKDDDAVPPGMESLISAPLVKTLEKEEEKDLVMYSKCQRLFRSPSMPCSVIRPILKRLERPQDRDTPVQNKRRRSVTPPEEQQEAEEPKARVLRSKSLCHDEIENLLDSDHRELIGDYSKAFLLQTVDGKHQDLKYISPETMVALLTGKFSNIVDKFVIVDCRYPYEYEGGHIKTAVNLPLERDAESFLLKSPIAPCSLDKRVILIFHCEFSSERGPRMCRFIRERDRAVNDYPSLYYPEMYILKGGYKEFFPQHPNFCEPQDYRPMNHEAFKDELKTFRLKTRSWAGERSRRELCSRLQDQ

Sequence of Dual specificity protein phosphatase 3 (Homo sapiens) (P51452 whole entry, looked up): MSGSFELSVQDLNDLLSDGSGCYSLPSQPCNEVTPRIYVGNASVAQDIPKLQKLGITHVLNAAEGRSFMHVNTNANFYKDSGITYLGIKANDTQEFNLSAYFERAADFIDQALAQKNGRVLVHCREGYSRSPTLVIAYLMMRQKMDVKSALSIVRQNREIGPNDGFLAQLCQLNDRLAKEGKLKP

O=C(CC12CC3CC(CC(C3)C1)C2)NCCCCO
Activity [1]: inactive
EC50 [2]: > 50 µM

OC(CS)C(O)CS (stereo unspecified)
Activity [3]: Active
Activity [4]: Active
Activity [5]: Active

N=C1C(=O)NC(=O)c2cc(-c3ccc(OCCCCNC(=O)CC45CC6CC(CC(C6)C4)C5)cc3)sc21
Activity [6]: Active
Activity [7]: Active
Activity [8]: Active
inhibition [9]: < 11%
inhibition [10]: < 11%
inhibition [11]: < 11%
